Reference: patent publication US5268468A, “N-nitrosophenoxybenzenepropanamine and N-1-chloroethyl carbamate intermediates” (Hoechst-Roussel Pharmaceuticals Incorporated, priority 1993, dated 1993)
Counter-ions that a name gives are not always drawn.

Tested on: serotonin uptake in rat whole brain and hypothalamic synaptosomes
Test: [3H]-Serotonin Uptake in Rat Whole Brain and Hypothalamic Synaptosomes
Type: biochemical, rat (male CR Wistar)
Conditions: rat whole brain or hypothalamic synaptosomes; 50 nM [3H]-5-hydroxytryptamine; 37° C., 5 minutes; pH 7.4; log-probit analysis; read-out: Inhibition of Serotonin Uptake (IC50)
Method: [^3 H]-Serotonin Uptake in Rat Whole Brain
A. Animals: Male CR Wistar rats (100-125 g).
1. Krebs-Henseleit Bicarbonate Buffer, pH 7.4 (KHBB):
Make a 1 liter batch, containing the following salts.
Potassium chloride 0.35 4.7
Calcium chloride 0.14 1.3
Aerate for 60 min. with 95% oxygen/5% carbon dioxide,
2. 0.32 M Sucrose: 21.9 g of sucrose, bring to 200 ml.
3. Serotonin creatinine sulfate 0.1 mM stock solution is
made up in 0.01 N hydrochloric acid. This is used to
dilute the specific activity of radiolabeled
[H^3 ]-5-hydroxytryptamine (serotonin).
4. 5-[1,2-^3 H(N)]-Hydroxytryptamine creatinine sulfate
(Serotonin), specific activity 20-30 Ci/mmol is used.
The final desired concentration of
[H^3 ]-5-hydroxytryptamine in the assay is 50 nM. The
dilution factor is 0.8. Therefore, the KHBB is made up to
contain 62.5 nM [H^3 ]-5-hydroxy-tryptamine.
A) 56.1 μl of 0.1 mM 5-hydroxytryptamine
*B) 0.64 nmole of 5-hydroxytryptamine
5. For most assays, a 1 mM stock solution of the test com-
pound is made up in suitable solvent and serially diluted
such that the final concentration in the assay ranges from
2 × 10^-8 to 2 × 10^-5 M. Seven concentrations
for each assay. Higher or lower concentrations may be
used depending on the potency of the compound.
Male Wistar rats are decapitated and the brain rapidly
removed. […]
scintillation vials, and counted in 10 ml of Liquiscint […]

CN(N)CCC(Oc1ccc(C(F)(F)F)cc1)c1ccccc1 (stereo not shown) [2-Methyl-2-[3-phenyl-3-[(4-trifluoromethyl)phenoxy]propyl]hydrazine maleate]
IC50: 1230 nM
